{"source": "patent US7951548B2", "about": "“IL-13 production inhibitor” (Takeda Pharmaceutical Company Limited, priority 2005, dated 2011)", "format_in_all_cases": "cell-based", "key": {"[1]": {"target": "T1, GPR34 (Homo sapiens, UniProt Q9UPC5)", "T1 construct": "expressed in transfected cells", "T1 sequence (Q9UPC5 whole entry)": "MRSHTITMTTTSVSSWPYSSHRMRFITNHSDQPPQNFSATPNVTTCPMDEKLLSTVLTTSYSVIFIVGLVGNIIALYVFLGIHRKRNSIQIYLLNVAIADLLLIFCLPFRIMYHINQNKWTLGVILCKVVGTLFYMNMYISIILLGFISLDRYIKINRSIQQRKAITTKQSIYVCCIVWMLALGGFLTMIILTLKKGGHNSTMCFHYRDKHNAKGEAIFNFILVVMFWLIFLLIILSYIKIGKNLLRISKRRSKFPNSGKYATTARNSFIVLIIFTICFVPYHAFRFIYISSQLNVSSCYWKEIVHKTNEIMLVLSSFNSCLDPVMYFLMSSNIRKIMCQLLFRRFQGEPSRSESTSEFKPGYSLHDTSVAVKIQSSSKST", "assay": "Intracellular cAMP production inhibitory activity on GPR34-expressed CHO cells (forskolin stimulated)", "details": "phosphatidylserine in a higher concentration", "procedure": "The GPR34-expressed CHO cells prepared in (1-2) described above and selected in (1-3) described above were plated on a 24-well plate in 6×10^4 cells/well followed by incubation for 48 hours. The cells were washed with αMEM medium (pH 7.5) containing 0.2 mM 3-isobutylmethylxanthine, 0.05% BSA and 20 mM HEPES (hereinafter αMEM medium (pH 7.5) containing 0.2 mM 3-isobutylmethylxanthine, 0.05% BSA and 20 mM HEPES is referred to as the reaction buffer). Thereafter, 0.5 mL of the reaction buffer was added and the mixture was kept warm for 30 minutes in an incubator. The reaction buffer was removed and 0.25 mL of fresh reaction buffer was replenished to the cells. Then, 0.25 mL of the reaction buffer containing a sample and 2 μM forskolin was added to the cells, followed by reacting at 37° C. for 30 minutes. The reaction solution was removed and 0.5 mL of the cell lysis solution attached to cAMP EIA kit (Applied Biosystems) to extract cAMP in the cells. The cAMP level in the extract was quantified using the same kit. Based on this measurement data, the cAMP production inhibitory activity was calculated based on the equation shown below and expressed in terms of percentage to the control group. […]"}, "[2]": {"test_system": "other receptor expression cells", "assay": "cAMP production inhibitory activity on other receptor expression cells"}, "[3]": {"target": "T1, GPR34", "assay": "MAPK activation: phosphorylation of ERK1/2 in human GPR34-expressed CHO cells (western blotting)", "details": "PTX 0.1 μg/mL, 20 hours before the assay", "procedure": "The cells were prepared as described below. Human GPR34-expressed CHO cells were scraped off with 0.05% trypsin-EDTA (GIBCO) and suspended in a medium (MEM-α (GIBCO), supplemented with 10% FBS (GIBCO) and penicillin/streptomycin (BIOWHITTAKER)). After centrifugation, the cells precipitated were suspended in the medium in 2×10^5 cells/ml and a 1 mL aliquot was plated on a 35 mm cell culture dish. After incubation overnight in a CO2 incubator, the medium was aspirated and washed in PBS. Then 1 mL of serum-free medium (MEM-α (GIBCO), supplemented with penicillin/streptomycin (BIOWHITTAKER)) and incubation was performed in a CO2 incubator. Pertussis toxin (hereinafter PTX) was added in a final concentration of 0.1 μg/mL 20 hours before the assay.\nThe cells were activated as follows. The medium was aspirated and washed in PBS. Thereafter, 500 μL of assay buffer (HBSS (GIBCO), 10 mM HEPES (Dojin Chemical Laboratory)) was added to perform preincubation for 15 minutes at 37° C. The lysoPS solution and […] of PECGF ([…] cell growth factor) solution as a positive control were added. After the mixture was incubated at 37° C., the reaction was terminated by quenching. The assay buffer was aspirated and washed in PBS. Then, 1×SDS sample buffer/DTT was added to the cells to recover the cells. After ultrasonication for 15 seconds, heating at 95° C. for 5 minutes was followed by quenching.\n(§1) Detection by SDS-PAGE and western blotting were performed as follows. After separation using 10% Bis-Tris gel (Invitrogen), the gel was transferred to Immuno-Blot PVDF Membrane (Bio-Rad). The membrane was blocked with Block Ace (Dai-Nippon Pharmaceutical) and incubated at room temperature for an hour with a primary antibody (Phospho-p42/p44 MAP Kinase (Thr202/Thr204) Antibody (CST) or p42/p44 MAP Kinase Antibody (CST)) and further incubated at room temperature for an hour using a secondary antibody (Anti-rabbit IgG (CST)). The membrane after the antibody reaction was visualized by chemiluminescence using ECL PLUS (Amersham Biosciences). […]"}, "[4]": {"test_system": "rat peritoneal mast cells", "assay": "MAPK activation: phosphorylation of ERK1/2 in rat peritoneal mast cells (RPMC)", "details": "PTX 0.1 μg/mL, 4 hours before assay", "procedure": "Pertussis toxin (hereinafter PTX) was added to the cells in a final concentration of 0.1 μg/mL 4 hours before assay. RPMC was washed in ice-chilled assay buffer (Tyrode Buffer, 0.01% fatty acid free-BSA (SIGMA), 1 mM CaCl2, 1 mM MgCl2), and suspended in 2×10^6 cells/ml. The suspension was dispensed in a 1.5 mL tube followed by preincubation for 15 minutes at 37° C. The lysoPS solution was added thereto in an equimolar amount. After incubation at 37° C., the reaction was terminated by quenching. The cells were precipitated by centrifugation and the assay buffer was aspirated. After washing in PBS, 1×SDS sample buffer/DTT was added to the cells to lyse the cells. After ultrasonication for 15 seconds, heating at 95° C. for 5 minutes was followed by quenching.\nas §1, with “PVDF Membrane (BIO-RAD). The membrane” for “PVDF Membrane (Bio-Rad). The membrane”, “incubated at 4° C. overnight with a” for “incubated at room temperature for an hour with a”, “an hour with a secondary” for “an hour using a secondary”"}, "[5]": {"test_system": "mouse bone marrow-derived mast cells", "assay": "MAPK activation: phosphorylation of ERK1/2 in mouse bone marrow-derived mast cells (BMMC)", "details": "PTX 0.1 μg/mL, 4 hours before assay", "procedure": "BMMC was established by collecting bone marrow fluid from the femur of male BALB/c mouse (Japan SLC), rinsing in RPMI1640 (Nikken Bio Medical Laboratory) and then incubating in a medium (RPMI1640, 50% WEHI-3 culture supernatant, 10% FBS (GIBCO), penicillin/streptomycin (BIOWHITTAKER), Non-Essential amino acids (GIBCO)) for 4 weeks. The cells were incubated in a CO2 incubator immediately before assay. Pertussis toxin (hereinafter PTX) was added to the cells in a final concentration of 0.1 μg/mL 4 hours before assay. BMMC was washed in ice-chilled assay buffer (Tyrode Buffer, 0.01% fatty acid free-BSA (SIGMA), 1 mM CaCl2, 1 mM MgCl2), and suspended in 2×10^6 cells/ml. The suspension was dispensed in a 1.5 mL tube followed by preincubation for 15 minutes at 37° C. The lysoPS solution and A23187 solution (Wako Pure Chemicals) as a positive control were added in equimolar amounts. After incubation at 37° C., the reaction was terminated by quenching. The cells were precipitated by centrifugation and the assay buffer was aspirated. After washing in PBS, 1×SDS sample buffer/DTT was added to the cells to lyse the cells. After ultrasonication for 15 seconds, the sample was heated at 95° C. for 5 minutes followed by quenching.\nDetection by SDS-PAGE and western blotting were performed as follows. After separation using 10% Bis-Tris gel (Invitrogen), the gel was transferred to Immuno-Blot PVDF Membrane (BIO-RAD). The membrane was blocked with Block Ace (Dai-Nippon Pharmaceutical) and incubated at 4° C. overnight with a primary antibody (Phospho-p42/p44 MAP Kinase (Thr202/Thr204) Antibody (CST) or p42/p44 MAP Kinase Antibody (CST)) and further incubated at room temperature for an hour using a secondary antibody (Anti-rabbit IgG (CST)). The membrane after the antibody reaction was visualized by chemiluminescence using ECL PLUS (Amersham Biosciences). Detection and image analysis were performed using LAS1000 (FUJI FILM)."}}, "data": [{"substance": "phosphatidylserine", "values": [{"measurement": "cAMP production inhibitory activity", "setting": "[1]", "result": "marked activities"}, {"measurement": "cAMP production inhibitory action on other receptor expression cells", "setting": "[2]", "result": "not noted"}]}, {"substance": "Pertussis toxin [PTX]", "values": [{"measurement": "effect of PTX pretreatment on phosphorylation of ERK1/2 by lysoPS", "setting": "[3]", "result": "attenuated to the level below the detection limit"}, {"measurement": "effect of PTX pretreatment on phosphorylation of ERK1/2 by lysoPS", "setting": "[4]", "result": "attenuated to the level below the detection limit"}, {"measurement": "effect of PTX pretreatment on phosphorylation of ERK1/2 by lysoPS", "setting": "[5]", "result": "attenuated to the level below the detection limit"}]}]}
